This is an account of results in article PMC12192976, “Unique Structural Features Relate to Evolutionary Adaptation of Cytochrome P450 in the Abyssal Zone” (International Journal of Molecular Sciences, 2025).

Experiment [1] addresses T1, C. armatus CYP51 (Coryphaenoides armatus, UniProt Z9AQN8BZD8). Briefly: Spectral titration of C. armatus CYP51 with sterol substrates (type I response). To be noted: P450 2 µM; for Kd: read-out: Kd (apparent spectral dissociation constant, sterol substrate), titration step 0.25 µM; for Spin State Transition in the Heme Iron: sterol 0.25−3 µM, 22 °C.
Protocol: Equal amounts of the HPCD solution were added to the reference cuvette to correct for the solvent-induced spectral perturbations, and the difference spectra were taken in the wavelength range of 350–500 nm. […] The apparent spectral dissociation constants (Kd) were calculated in GraphPad Prism software, as described, for human CYP51 [22].
Experiment [2] addresses T1, C. armatus CYP51. In words: Reconstituted sterol 14α-demethylation, steady-state (Michaelis–Menten) kinetics. Conditions: 0.25 µM P450, 1 µM CPR, 1 min reaction, 37 °C; for kcat: sterol 3.12−37.5 µM.
Protocol: (§1) The samples were preincubated for 3 min at 37 °C in a shaking water bath, and the reaction was initiated by the addition of 100 μM NADPH and stopped by the extraction of sterols with ethyl acetate. The extracted sterols were dried, dissolved in 100 µL of methanol, and the products were analyzed by reversed-phase HPLC equipped with a β-RAM detector (INUS Systems) using a Nova-Pak 3.9 mm × 150 mm (4 μm) octadecylsilane (C18) HPLC column. The products were separated with an isocratic mobile phase composed of acetonitrile and methanol (4:1 (v/v)) at a flow rate of 0.75 mL/min [9]. Michaelis–Menten parameters were calculated using GraphPad Prism. The kcat and Km values for each reaction were determined by fitting the data to a Michaelis–Menten hyperbola, with the reaction rates (nmol product formed/nmol P450/min) being plotted versus total substrate concentration.
Experiment [3] concerns the target T1, C. armatus CYP51. Briefly: Stabilization of C. armatus CYP51 by TMAO (CO-binding spectra after overnight storage). Here is the method: Absorption spectra (270–700 nm) were recorded at 22 °C using a dual-beam Shimadzu UV-2600i spectrophotometer and UVProbe2.71 software. The P450 concentration was determined from the Soret band absorbance in the absolute spectrum, with the extinction coefficient 117 mM^−1 cm^−1 for the low-spin ferric form or 91 mM^−1 cm^−1 for the reduced (ferrous) carbon monoxide (CO) complex in the difference spectra. The spin state of the P450 samples was estimated from the absolute spectra using the ratio (ΔA393–470/ΔA417–470), with values of 0.35 and 2.0 corresponding to 100% low- and 100% high-spin iron, respectively.
After data collection the crystals were dissolved in phosphate buffered saline (PBS, Gibco, Billings, MT, USA). UV-visible absolute absorption spectra (270–700 nm) were recorded at room temperature using a NanoVue,4282 single beam spectrophotometer (CE Healthcare, Cardiff, UK) (Figure S4A). CO-binding difference absorption spectra (400–500 nm) were recorded using a dual-beam Shimadzu UV-2600i spectrophotometer as follows. The CO gas was bubbled through the protein solution, which was then divided into two cuvettes serving as a blank and standard, respectively. The baseline was taken, and a few crystals of […] were added to the sample cuvette (Figure S4B). […]

Experiment [4] addresses T1, C. armatus CYP51.
Protocol: as §1
The subject of experiment [5] is human CYP51. The arrangement: method as in PMID 27313059. To be noted: cited from earlier work.
In experiment [6] the target is human CYP51. The arrangement: method as in PMID 27313059. Conditions: read-out: apparent dissociation constant (Kd), azole ligand; cited from earlier work.
Experiment [7] has as its target T1, C. armatus CYP51. In words: Spectral titration with azole-based ligands (type II response).
Protocol: Equal amounts of the HPCD solution were added to the reference cuvette to correct for the solvent-induced spectral perturbations, and the difference spectra were taken in the wavelength range of 350–500 nm. […] Titrations with azole-based compounds were carried out at 0.5 µM P450 concentration in 5 cm optical path length cuvettes. Aliquots of 0.1 mM compounds dissolved in dimethyl sulfoxide (DMSO) were added to the sample cuvette, with each titration step being 0.1 µM. At each step, the corresponding volume of DMSO was added to the reference cuvette. The apparent spectral dissociation constants (Kd) were calculated in GraphPad Prism software, as described, for human CYP51 [22].
In experiment [8] the target is T1, C. armatus CYP51. Briefly: Inhibition of reconstituted lanosterol 14α-demethylation, 1 h reaction. To be noted: enzyme/inhibitor/substrate 1:50:50, 60 min.
Protocol: as §1
Setting [9] is: read-out: apparent dissociation constant (Kd), azole ligand, P450 0.5 µM, titration step 0.1 µM.

T1 sequence (Z9AQN8BZD8 6-449 limits assumed): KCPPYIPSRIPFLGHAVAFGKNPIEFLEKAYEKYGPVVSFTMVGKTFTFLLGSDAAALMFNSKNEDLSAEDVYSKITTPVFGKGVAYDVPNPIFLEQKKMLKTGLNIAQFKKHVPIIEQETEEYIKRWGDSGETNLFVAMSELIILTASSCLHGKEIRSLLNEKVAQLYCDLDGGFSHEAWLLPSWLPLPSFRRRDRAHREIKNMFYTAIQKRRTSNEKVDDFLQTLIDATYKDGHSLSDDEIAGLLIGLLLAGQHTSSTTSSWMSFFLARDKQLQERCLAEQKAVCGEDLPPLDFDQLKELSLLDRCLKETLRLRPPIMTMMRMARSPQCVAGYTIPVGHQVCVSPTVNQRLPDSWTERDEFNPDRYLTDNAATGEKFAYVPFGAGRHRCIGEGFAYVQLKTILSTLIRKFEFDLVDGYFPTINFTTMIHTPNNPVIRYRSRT

`C=C(CC[C@@H](C)C1CC[C@@]2(C)C3=C(CC[C@]12C)[C@@]1(C)CC[C@H](O)C(C)(C)C1CC3)C(C)C` (stereo partly shown): on C. armatus CYP51 [1], the Kd turned out to be 1020 ± 40 nM and the “Spin State Transition in the Heme Iron” value was 27%. For the same compound, at C. armatus CYP51 [2], the Km (as a rule, the concentration of substrate that gives half-maximal velocity) is 13 ± 0.9 µM and the kcat (usually the maximal rate divided by the concentration of active sites) worked out at 1.03 ± 0.0383 s⁻¹.
In the same order, the values of `CC(C)=CCC[C@@H](C)[C@H]1CC[C@@]2(C)C3=C(CC[C@]12C)[C@@]1(C)CC[C@H](O)C(C)(C)[C@@H]1CC3` [Lanosterol] are 770 ± 40 nM, 22%, 8.1 ± 1.1 µM and 0.797 ± 0.0317 s⁻¹.
For the compound `C=C(CC[C@@H](C)[C@H]1CC[C@@]2(C)C3=C(CC[C@]12C)[C@@]1(C)CC[C@H](O)[C@@H](C)[C@@H]1CC3)C(C)C` [Obtusifoliol, obtusifoliol], at C. armatus CYP51 [1], the Kd worked out at 560 ± 30 nM and the “Spin State Transition in the Heme Iron” value amounted to 13%. Moreover, on C. armatus CYP51 [2], the Km was determined as 7.9 ± 0.6 µM and the kcat was found to be 0.865 ± 0.03 s⁻¹.
On to `C[N+](C)(C)[O-]` [TMAO, Trimethylamine oxide], for which the “spectral response in the C. armatus CYP51 heme iron (in words)” value at C. armatus CYP51 [3] is reported as “does not cause any spectral response”. The “P450 recovery after overnight incubation (CO-binding spectra)” value on C. armatus CYP51 [3] (10 mM TMAO, overnight storage at 4 °C in PBS) worked out at 90%.
Take `O=C(N[C@@H](Cn1ccnc1)c1ccc(-c2ccc(F)cc2)cc1F)c1ccc(-c2nnc(-c3ccccc3)o2)cc1` [VFV, (R)-N-(1-(3,4′-difluorobiphenyl-4-yl)-2-(1H-imidazol-1-yl)ethyl)-4-(5-phenyl-1,3,4-oxadiazol-2-yl)benzamide]: the “inhibition of CYP51 activity” value against C. armatus CYP51 [4] is 93%; in the experiment on human CYP51 [5] (human CYP51, enzyme/inhibitor/substrate 1:50:50, 60 min) it was 64%. Moreover, the Kd is 90 nM on human CYP51 [6] and 20 nM on C. armatus CYP51 [7].
Consider `N#Cc1ccc(COc2ccc(C#Cc3ccc(C(F)(F)[C@](O)(Cn4cnnn4)c4ccc(F)cc4F)nc3)cc2)cc1` [VT-1598], for which the “inhibitory effect on the C. armatus CYP51 activity (in words)” value (“inhibitory effect” for short) on C. armatus CYP51 [8] was “did not have any inhibitory effect”.
On the same count and under the same terms, to `C[C@@H](c1nc(-c2ccc(C#N)cc2)cs1)[C@](O)(Cn1cncn1)c1cc(F)ccc1F` [isavuconazole] belongs “did not have any inhibitory effect”.
As to `CCC(C)n1ncn(-c2ccc(N3CCN(c4ccc(OCC5COC(Cn6cncn6)(c6ccc(Cl)cc6Cl)O5)cc4)CC3)cc2)c1=O` (stereo not shown) [itraconazole], the “inhibitory effect” value against C. armatus CYP51 [8] is on record as “did not have any inhibitory effect”. In addition, the Kd was 1290 nM on human CYP51 [6] and 620 nM on C. armatus CYP51 [7] (setting [9]).
Regarding `CC(=O)N1CCN(c2ccc(OCC3COC(Cn4ccnc4)(c4ccc(Cl)cc4Cl)O3)cc2)CC1` (stereo not shown) [ketoconazole], the “lanosterol converted in presence of inhibitor” value in the experiment on human CYP51 [5] (human CYP51, 50-fold molar excess of inhibitor, 1 h reaction) is reported as 100%. Moreover, the Kd at human CYP51 [6] is 70 nM; on C. armatus CYP51 [7] (setting [9]), 10 nM.
With `O[C@@](Cn1cnnn1)(c1ccc(F)cc1F)C(F)(F)c1ccc(-c2ccc(OCC(F)(F)F)cc2)cn1` [oteseconazole], the “inhibitory effect” value at C. armatus CYP51 [8] is “did not have any inhibitory effect”.
Same read-out and setting: under `CC[C@@H]([C@H](C)O)n1ncn(-c2ccc(N3CCN(c4ccc(OC[C@@H]5CO[C@@](Cn6cncn6)(c6ccc(F)cc6F)C5)cc4)CC3)cc2)c1=O` [posaconazole] stands “did not have any inhibitory effect”.
`C[C@@H](c1ncncc1F)[C@](O)(Cn1cncn1)c1ccc(F)cc1F` [voriconazole]: on C. armatus CYP51 [8], the “inhibitory effect” value is “did not have any inhibitory effect”. For the same compound, the Kd is 2530 nM on human CYP51 [6] and 610 nM on C. armatus CYP51 [7] (setting [9]).
